Assay results taken from patent US20180188224A1, “METHOD FOR CONSTRUCTING A SENSORY SPACE” (CENTRE SCIENTIFIQUE ET TECHNIQUE DU BATIMENT (CSTB), priority 2015, published 2018).
Values joined by “and” are separate entries in the source; they are usually repeats but may differ in a detail not shown here. Equal entries are not always repeated.

Columns and labels:
[1] = cited from earlier work; for detection threshold: representative compound of a primary taste
[2] = tested on: four non-smoking volunteers (2 men and 2 women); assay: Hedonic score, 11-point scale (0 very unpleasant to 10 very pleasant, 5 neutral); assay type: in vivo, human
Procedure: (§1) In this test, four non-smoking volunteers (2 men and 2 women) were chosen from 12 people for their performance in taste recognition. Their mean age was 32 years, ranging from 24 to 40 years. […] These four people were trained for several months to recognize and detect the four basic tastes, and also regarding the procedures of sensory and physiological analysis.
(§2) The four basic tastes (sweet, salty, sour and bitter) were used. The solutions were prepared with citric acid for the sour taste, caffeine for the bitter taste, sodium chloride for the salty taste and sucrose for the sweet taste (all purchased from Sigma Aldrich, France) in Evian water. Evian water was also used as control and blank. Each taste was prepared with the four concentrations mentioned in table 1.
(§3) The amount of solution to be tested was standardized at 10 ml. In order to impregnate the whole of the oral cavity, the subjects kept the solution in their mouth for 5 s before swallowing it.
(§4) The sessions were individual and the subjects were asked not to eat or drink anything for at least 1 h before the test. They arrived 15 min before the start of the session in order to acclimatize to the environmental conditions, in particular the temperature of the room (kept constant at 23° C.) and to be resting seated on a comfortable chair. The 16 solutions for testing and two additional samples of water containing solely Evian water, added to the references, were presented monadically following a test order determined from a “balanced incomplete block design”. During a session, 9 samples out of 18 were presented to minimize sensory fatigue. In addition, a sample of Evian was always tested as a “blank” sample in order to avoid the first-order effect (Lawless, H. T. & Heymann, H., 2010, Sensory evaluation of food: Principles and practices. Springer, New York) and was excluded from the analysis. A light signal was sent to give the instruction to test the sample. When the disturbance to the nervous system returned to its baseline level (after approximately 1 min), a second light signal indicated to the subjects that they should complete a questionnaire regarding the stimulus tested previously. The first part of the questionnaire was linked to the identification of the taste (i.e. determining the quality of the taste); the subjects had to choose between five labels: sweet, salty, sour, bitter or neutral. They then had to assign a taste intensity score on an 11-point scale (from 0 “not intense” (i.e. taste of Evian only) to 10 “very intense”) and finally to give a hedonic score on an 11-point scale (from 0 “very unpleasant” to 10 “very pleasant”, 5 being “neutral”).
(§5) This procedure was repeated for each of the 9 stimuli. A session lasted approximately 45 min including a debriefing at the end of the test to ensure understanding of the sense of the signal variations. The experiment was repeated 12 times per subject, meaning that the data are composed of 6 data sets per subject and per product and 12 data sets for the Evian product per subject. Thus, the database consists of 432 samples.
(§6) The effect of the taste on the hedonic and intensity scores was analyzed by an analysis of variance (ANOVA) including the product effect, the subject effect and the product-subject interaction. The subject effect was fixed because there were only 4 subjects and the results could only be applied to a particular schema. The differences were considered to be significant at a level of 0.05.

[3] = tested on: four non-smoking volunteers (2 men and 2 women); assay: Taste identification questionnaire, trained panel (count of 6 repetitions per subject in which the stimulus was given each taste label; level of recognition %); assay type: in vivo, human
Procedure: as §1, §2, §3, §4, §5

[4] = tested on: subject 3; assay: Skin blood microcirculation (SKBF) response to taste stimuli, PCA sensory space (ESRP); assay type: in vivo, human; details: concentration 3
From the text: A Periflux PF 5010 (Perimed AB, Sweden) system was chosen, which enables non-invasive monitoring of blood perfusion in the capillaries, arterioles and venules.
The unit of blood perfusion is arbitrary and corresponds to the product of the mean rate of displacement of the red blood cells by their concentration. The system Periflux PF 5010 has a 780 nm, 1 mm diameter laser beam without thermal effect. An optical fiber probe PR407 is used. The low-energy laser beam is transmitted by the probe to the tissue. A portion of the light reflects off the static structures and another portion of the light reflects off the moving blood cells. When the light reflects off a moving cell, the wavelength is modified, which corresponds to the Doppler effect. The scattered light collected by the optical fiber is used to calculate the perfusion value. The measurement is expressed in perfusion units (PU). Recording was carried out on the pad of the index finger of the non-dominant hand, due to the high level of vascularization of this zone. The perfusion signals were recorded by an 8-channel PowerLab PL35088/35 acquisition system; the data were collected at a frequency of 1 kHz and analyzed by the LabChart® software (AD instruments Ltd, United Kingdom).
. Then, the peak was analyzed manually by selecting the whole of the peak and analyzing it with the LabChart® software (FIG. 1).
Several shape parameters were extracted from the signal (i.e. amplitude, duration, gradient). […]
The SKBF responses were analyzed individually by one-way ANOVA (product effect), the subjects having their own “preferential channel” (Lacey, J. I., Bateman, D. E. & VanLEHN, R., 1953, Autonomic response specificity: An experimental study. Psychosomatic Medicine, 15, 8-21). […]

[5] = tested on: four non-smoking volunteers (2 men and 2 women); assay: Taste intensity score, 11-point scale (0 not intense to 10 very intense); assay type: in vivo, human; details: concentration 4; averaged over 4 subjects, 6 repetitions each
Procedure: as §1, §2, §3, §4, §5, §6

## Cn1c(=O)c2c(ncn2C)n(C)c1=O [Caffeine, caffeine]
[1]
  detection threshold: 0.05 to 0.35 g/L
[2]; concentration 3
  hedonic score: 3.5±1.8
[2]; concentration 4 (highest)
  hedonic score: 3.5±2.3
[3]; human, in vivo
  Individual recognition score: Bitter: 6 (9×) and 4 (2×) and 5 (4×) and 3
  Individual recognition score: Neutral: 0 (11×) and 1 (3×) and 3 and 2
  Individual recognition score: Salty: 0
  Individual recognition score: Sour: 0 (14×) and 1 (2×)
  Individual recognition score: Sweet: 0 (15×) and 1
  Level of Recognition %: Bitter: 83% and 84%
  Level of Recognition %: Salty: 0%
  Level of Recognition %: Sour: 0% and 4%
  Level of Recognition %: Sweet: 0% and 4%
[4]
  SKBF disturbance (signal width, area of the peak; ANOVA): significantly stronger disturbance than the others

## OC[C@H]1O[C@@](CO)(O[C@H]2O[C@H](CO)[C@@H](O)[C@H](O)[C@H]2O)[C@@H](O)[C@@H]1O [Sucrose, sucrose]
[1]; literature (Purves 2005; Robinson 2005)
  detection threshold concentration of the basic taste: approximately 20 mmol·l^−1
[1]
  detection threshold: 6.846 g/L
[5]
  intensity score: 8.3±0.9
[2]; concentration 4 (highest)
  hedonic score: 7.0±2.6
[3]; Subject 1, dilution 1
  Individual recognition score: Bitter: 0
  Individual recognition score: Neutral: 0
  Individual recognition score: Salty: 0
  Individual recognition score: Sour: 0
  Individual recognition score: Sweet: 6
[3]; Subject 1, dilution 2
  Individual recognition score: Bitter: 0
  Individual recognition score: Neutral: 0
  Individual recognition score: Salty: 0
  Individual recognition score: Sour: 0
  Individual recognition score: Sweet: 6
[3]; Subject 1, dilution 3
  Individual recognition score: Bitter: 0
  Individual recognition score: Neutral: 0
  Individual recognition score: Salty: 0
  Individual recognition score: Sour: 0
  Individual recognition score: Sweet: 6
[3]; Subject 1, dilution 4
  Individual recognition score: Bitter: 0
  Individual recognition score: Neutral: 0
  Individual recognition score: Salty: 0
  Individual recognition score: Sour: 0
  Individual recognition score: Sweet: 6
[3]; Subject 2, dilution 1
  Individual recognition score: Bitter: 0
  Individual recognition score: Neutral: 0
  Individual recognition score: Salty: 0
  Individual recognition score: Sour: 0
  Individual recognition score: Sweet: 6
[3]; Subject 2, dilution 2
  Individual recognition score: Bitter: 0
  Individual recognition score: Neutral: 0
  Individual recognition score: Salty: 0
  Individual recognition score: Sour: 0
  Individual recognition score: Sweet: 6
[3]; Subject 2, dilution 3
  Individual recognition score: Bitter: 0
  Individual recognition score: Neutral: 0
  Individual recognition score: Salty: 0
  Individual recognition score: Sour: 0
  Individual recognition score: Sweet: 6
[3]; Subject 2, dilution 4
  Individual recognition score: Bitter: 0
  Individual recognition score: Neutral: 0
  Individual recognition score: Salty: 0
  Individual recognition score: Sour: 0
  Individual recognition score: Sweet: 6
[3]; Subject 3, dilution 1
  Individual recognition score: Bitter: 0
  Individual recognition score: Neutral: 3
  Individual recognition score: Salty: 0
  Individual recognition score: Sour: 0
  Individual recognition score: Sweet: 3
[3]; Subject 3, dilution 2
  Individual recognition score: Bitter: 0
  Individual recognition score: Neutral: 0
  Individual recognition score: Salty: 0
  Individual recognition score: Sour: 0
  Individual recognition score: Sweet: 6
[3]; Subject 3, dilution 3
  Individual recognition score: Bitter: 0
  Individual recognition score: Neutral: 0
  Individual recognition score: Salty: 0
  Individual recognition score: Sour: 0
  Individual recognition score: Sweet: 6
[3]; Subject 3, dilution 4
  Individual recognition score: Bitter: 0
  Individual recognition score: Neutral: 0
  Individual recognition score: Salty: 0
  Individual recognition score: Sour: 0
  Individual recognition score: Sweet: 6
[3]; Subject 4, dilution 1
  Individual recognition score: Bitter: 0
  Individual recognition score: Neutral: 0
  Individual recognition score: Salty: 0
  Individual recognition score: Sour: 0
  Individual recognition score: Sweet: 6
[3]; Subject 4, dilution 2
  Individual recognition score: Bitter: 0
  Individual recognition score: Neutral: 0
  Individual recognition score: Salty: 0
  Individual recognition score: Sour: 0
  Individual recognition score: Sweet: 6
[3]; Subject 4, dilution 3
  Individual recognition score: Bitter: 0
  Individual recognition score: Neutral: 0
  Individual recognition score: Salty: 0
  Individual recognition score: Sour: 0
  Individual recognition score: Sweet: 6
[3]; Subject 4, dilution 4
  Individual recognition score: Bitter: 0
  Individual recognition score: Neutral: 0
  Individual recognition score: Salty: 0
  Individual recognition score: Sour: 0
  Individual recognition score: Sweet: 6
[3]; four subjects, dilution 1
  Level of Recognition %: Bitter: 0%
  Level of Recognition %: Neutral: 12%
  Level of Recognition %: Salty: 0%
  Level of Recognition %: Sour: 0%
  Level of Recognition %: Sweet: 88%
[3]; four subjects, dilution 2
  Level of Recognition %: Bitter: 0%
  Level of Recognition %: Neutral: 0%
  Level of Recognition %: Salty: 0%
  Level of Recognition %: Sour: 0%
  Level of Recognition %: Sweet: 100%
[3]; four subjects, dilution 3
  Level of Recognition %: Bitter: 0%
  Level of Recognition %: Neutral: 0%
  Level of Recognition %: Salty: 0%
  Level of Recognition %: Sour: 0%
  Level of Recognition %: Sweet: 100%
[3]; four subjects, dilution 4
  Level of Recognition %: Bitter: 0%
  Level of Recognition %: Neutral: 0%
  Level of Recognition %: Salty: 0%
  Level of Recognition %: Sour: 0%
  Level of Recognition %: Sweet: 100%
